Converted amounts (≈) assume the structure as drawn.
How the values were obtained:
Plasmodium falciparum [1] = assay: Antimalarial activity against chloroquine-sensitive Plasmodium falciparum F32 in human erythrocytes after 48 hrs by [G-3H]hypoxanthine uptake; assay type: functional, organism-based; settings: F32, 48 h
KB = assay: Cytotoxicity against human KB cells by neutral red assay; assay type: functional, cell-based
[2] = Toxicity against Artemia salina; assay type: organism-based; settings: in vivo
Plasmodium falciparum [3] = assay: Antimalarial activity against chloroquine-resistant Plasmodium falciparum PFB in human erythrocytes after 48 hrs by [G-3H]hypoxanthine uptake; assay type: functional, organism-based
Plasmodium falciparum [4] = assay: Antimalarial activity against chloroquine-resistant Plasmodium falciparum FcB1 in human erythrocytes after 48 hrs by [G-3H]hypoxanthine uptake; assay type: functional, organism-based; settings: FcB1, 48 h
Candida tropicalis = assay: Antifungal activity against Candida tropicalis at 50 ug/disk after 48 hrs by paper disk method; assay type: functional; settings: read-out: IZ
Staphylococcus aureus = assay: Antibacterial activity against Staphylococcus aureus at 1 ug/disk after 24 hrs by paper disk method; assay type: functional; settings: read-out: IZ

## CC1(C)CCC[C@]2(C)[C@H]3C=C4C=C(O)C(=O)C=C4O[C@@]3(C)CC[C@@H]12 [PUUPEHENONE]
Plasmodium falciparum [1]
  IC50: 0.6 µg/mL (≈ 1.83 µM)
KB
  IC50: 0.5 µg/mL (≈ 1.52 µM)
[2]
  LC50: 20 µg/mL (≈ 60.9 µM)
Plasmodium falciparum [3]
  IC50: 1.5 µg/mL (≈ 4.57 µM)
Plasmodium falciparum [4]
  IC50: 2.1 µg/mL (≈ 6.39 µM)

## CO[C@@H]1c2cc(OC(C)=O)c(OC(C)=O)cc2O[C@@]2(C)CC[C@H]3C(C)(C)CCC[C@]3(C)[C@@H]12
Plasmodium falciparum [1]
  IC50: 0.6 µg/mL (≈ 1.35 µM)
Plasmodium falciparum [3]
  IC50: 1.2 µg/mL (≈ 2.7 µM)
Plasmodium falciparum [4]
  IC50: 1.4 µg/mL (≈ 3.15 µM)

## CO[C@@H]1c2cc(O)c(O)cc2O[C@@]2(C)CC[C@H]3C(C)(C)CCC[C@]3(C)[C@@H]12
Plasmodium falciparum [1]
  IC50: 0.4 µg/mL (≈ 1.11 µM)
KB
  IC50: 6 µg/mL (≈ 16.6 µM)
Plasmodium falciparum [3]
  IC50: 1.2 µg/mL (≈ 3.33 µM)
Plasmodium falciparum [4]
  IC50: 1.4 µg/mL (≈ 3.88 µM)
Candida tropicalis
  zone of inhibition at 50 µg/disc: 9 mm
Staphylococcus aureus
  zone of inhibition at 1 µg/disc: 7 mm

Source: ChEMBL document CHEMBL1144113, “Methanol adduct of puupehenone, a biologically active derivative from the marine sponge Hyrtios species” (J Nat Prod, 1999)
